This is an account of results in PMC12136991 (ACS chemical neuroscience, 2025).

The target of data set [1] is T1, mouse mu opioid receptor (mMOR-CHO) (Mus musculus, UniProt P42866). Nature of the data set: [35S]GTPγS functional assay, mMOR-CHO membranes. The data set is classed as biochemical. Background: Binding of GTPγS marks nucleotide exchange on a G protein.
The next data set is described as follows: Kinetic solubility assay. The data set is classed as physicochemical. Particulars: kinetic from dmso stock.
Data set [2] in a line: Multi-point microsome stability assay, human. The data set is classed as in vitro ADME. The following applies: both, human microsomal fractions, pH 7.4.
Data set [3] is described as follows: Multi-point microsome stability assay, mouse. The data set is classed as in vitro ADME. The following applies: male, CD-1, mouse, mouse microsomal fractions, pH 7.4.
Data set [4] is described as follows: Multi-point microsome stability assay, rat. The class given is in vitro ADME. The following applies: male, Sprague Dawley, rat microsomal fractions, pH 7.4.
The nature of data set [5]: Multi-point cytosol stability assay, human. The class given is in vitro ADME. The following applies: human cytosol fractions, pH 7.4.
The nature of data set [6]: Multi-point cytosol stability assay, mouse. The class given is in vitro ADME. Particulars: mouse cytosol fractions, pH 7.4.
A short description of data set [7]: Multi-point cytosol stability assay, rat. The class given is in vitro ADME. Particulars: rat cytosol fractions, pH 7.4.
Data set [8] relates to mice. The following applies: administered before IP 0.56% lactic acid; previously published; cited from earlier work.
In data set [9] the target is T2, human δ-opioid receptor (OPRD1) (Homo sapiens, UniProt P41143). The experiment in a line: Forskolin-induced cAMP accumulation assay, DOR antagonist mode. The following applies: for DOR Antagonist %Imax ± SEM: versus EC50 of SNC80, normalized to naltrexone.
Data set [10] deals with T3, human κ-opioid receptor (OPRK1) (Homo sapiens, UniProt P41145). The experiment in a line: Forskolin-induced cAMP accumulation assay, KOR antagonist mode.
The target in data set [11] is human μ-opioid receptor (OPRM1) (Homo sapiens, UniProt P35372). Nature of the data set: cell-based. The following applies: for Emax: OPRM1, read-out: MOR Agonist %Emax ± SEM.
Data set [12] addresses T1, mouse mu opioid receptor (mMOR-CHO). The experiment in a line: Competition radioligand binding assay, [3H]naloxone, mMOR-CHO membranes.
The target of data set [13] is T4, KOR (mKOR-CHO) (Mus musculus, UniProt P33534). Nature of the data set: Competition radioligand binding assay, mKOR-CHO membranes.
In data set [14] the target is T4, KOR (mKOR-CHO). The experiment in a line: [35S]GTPγS functional assay, mKOR-CHO membranes. The data set is classed as biochemical. The following applies: KOR-mediated [35S]GTPγS binding, up to 30 μM.
Data set [15] concerns the target T5, DOR (hDOR-CHO) (Homo sapiens, UniProt P41143). The experiment in a line: Competition radioligand binding assay, hDOR-CHO membranes. Particulars: DOR Receptor binding Ki, CHO cell membranes expressing cloned DOR.
The target in data set [16] is T5, DOR (hDOR-CHO). The experiment in a line: [35S]GTPγS functional assay, hDOR-CHO membranes. The class given is biochemical.
In data set [17] the test system is mice. Nature of the data set: Assay of pain-depressed locomotion in mice. The class given is in vivo, mouse.
Data set [18] concerns the target T2, human δ-opioid receptor (OPRD1). Nature of the data set: Forskolin-induced cAMP accumulation assay, DOR agonist mode. On the technique in general: Cyclic AMP is a second messenger, typically raised through Gs and lowered through Gi signalling.
Data set [19] has as its target T3, human κ-opioid receptor (OPRK1). Nature of the data set: Forskolin-induced cAMP accumulation assay, KOR agonist mode.
Data set [20] is described as follows: Parallel artificial membrane permeability assay. The data set is classed as in vitro ADME. The following applies: stirring double-sink PAMPA. Background: The PAMPA barrier holds no transporters, so it reflects passive diffusion.
[21] abbreviates: SC 30 min before 15 min session, significant increase, 12 mice per dose.

Each structure is given as a SMILES string. In brackets after ≈: the same amount, converted by molar mass. Several values for one entry are separate records, joined by “and”; a condition that tells them apart may be missing. Identical values can stand only once. Entries after “also recorded” stand apart in the source; their conditions may differ. Some results are limits rather than exact numbers.

As usually defined, the kinetic solubility is solubility judged after dilution from a stock solution rather than from solid. Broadly, the half-life is the time in which the quantity being followed falls by half. A low value points to rapid decline. As for `C=C[C@H]1[C@H]2CCC[C@]1(c1cccc(O)c1)CCN2CCc1ccccc1` [DC-1–76.2, 3-((1R,5S,9R)-2-phenethyl-9-vinyl-2-azabicyclo[3.3.1]nonan-5-yl)phenol, reference compound], the “GTPγS % Emax of (DAMGO)” value in data set [1] (MOR, % of maximal DAMGO stimulation) amounted to 29.09 ± 0.78%. The same compound came in with a kinetic solubility in “Kinetic solubility assay” of 34 µg/mL (≈ 97.8 µM). The half-life at 1 μM was 12 min in [2]; 4.7 min in data set [3]; 6.9 min in data set [4]; 80.7 min in data set [5]; 71.9 min in [6]; above 120 min in data set [7]. Also, the “effect on IP acid-induced depression of Crosses and Movement” value in the data set on mice [8] was “failed to alleviate IP acid-induced depression of Crosses but did alleviate IP acid-induced depression of Movement”. Besides, the “DOR Antagonist %Imax ± SEM” value in [9] came to 119.1 ± 15.5%. Further, the “KOR Antagonist %Imax ± SEM” value in data set [10] (versus EC90 of U50488H, normalized to nor-BNI) amounted to 97.1 ± 9.2%.

Usually EC50 stands for the concentration at which the effect is half-maximal. A lower EC50 goes with a more potent agent. What is called Emax is the maximal effect, on the per cent scale that the assay sets. For orientation: Ki means a measure of affinity in units of concentration, obtained from inhibition or displacement. A word on the IC50: it is the concentration needed to halve the response being measured. For the compound `C=C[C@H]1[C@H]2CCC[C@]1(c1cccc(C(N)=O)c1)CCN2CCc1ccccc1` [compound 5, 3-((1R,5S,9R)-2-Phenethyl-9-vinyl-2-azabicyclo[3.3.1]nonan-5-yl)benzamide], the EC50 in data set [11] is 5.28 nM; in [1] it was 23.3 ± 6.45 nM; on DOR (hDOR-CHO) [16], 1460 ± 594 nM; in [18] it was 6.01 ± 4.97 nM; in data set [19], above 10000 nM. For the same compound, the Emax in data set [11] was 75.1%; in data set [1] (read-out: GTPγS % Emax of (DAMGO), MOR, % of maximal DAMGO stimulation), 15.4 ± 1.8%; at DOR (hDOR-CHO) [16] (read-out: DOR GTPγS % Emax of (DAMGO)), -6.98 ± 1.21%; in [18] (read-out: DOR Agonist %Emax ± SEM) it was 25.2%. The values for the Ki (in data set [12]; at KOR (mKOR-CHO) [13]; on DOR (hDOR-CHO) [15]) were 1.24 ± 0.17 nM, 48.7 ± 7.06 nM and 237 nM, respectively. Also, the “KOR GTPγS % Emax of (DAMGO)” value on KOR (mKOR-CHO) [14] is listed as “did not stimulate; also recorded: No Stim”. The same compound registered a solubility (kinetic) in “Kinetic solubility assay” of 5.1 µg/mL (≈ 13.6 µM). Moreover, the half-life at 1 μM in [2] was 40.4 min; in [3], 16.7 min; in data set [4] it was 3.2 min; in data set [5], above 120 min; in [6] it was above 120 min; in [7], above 120 min. In addition, the “Crosses, drug administered alone: dose different from Vehicle” value with mice [17] (setting [21]) was determined as 18 mg/kg. In addition, the “Movement, drug administered alone: doses different from Vehicle” value in the data set on mice [17] (setting [21]) fell in the range of 10 to 18 mg/kg. Further, the “antinociceptive attenuation of IP acid-induced depression of Crosses: dose different from Vehicle+IP acid” value in the data set on mice [17] (SC pretreatment to IP 0.56% lactic acid) was found to be 18 mg/kg. Besides, the IC50 was 498 ± 208 nM in data set [9] and above 10000 nM in data set [10]. The “DOR Antagonist %Imax ± SEM” value in [9] came to 117.6 ± 8.0%.

As to `C=C[C@H]1[C@H]2CCC[C@]1(c1cccc(O)c1)CCN2CCc1ccc([N+](=O)[O-])cc1` [compound 17, 3-((1R,5S,9R)-2-(4-Nitrophenethyl)-9-vinyl-2-azabicyclo[3.3.1]nonan-5-yl)phenol], the EC50 in [11] and in data set [19] was above 10000 nM in each case. Besides, the Ki in data set [12] amounted to 0.41 ± 0.05 nM. In addition, the IC50 in data set [1] is 16.2 ± 2.52 nM; in [9], 105 ± 21.3 nM. Also, the “GTPγS % Imax of (DAMGO)” value in [1] (MOR, maximal percent inhibition) was 98.42% and 98.42 ± 4.24%. The kinetic solubility in “Kinetic solubility assay” was found to be 10.6 µg/mL (≈ 27 µM). Further, the half-life at 1 μM in data set [2] is 16.8 min; in data set [3] it was 9.31 min; in [4] it was 12.9 min; in [5], above 120 min; in [6], 105 min; in data set [7], above 120 min. Besides, the “DOR Antagonist %Imax ± SEM” value in [9] amounted to 137.2 ± 9.7%.

On to `C=C[C@H]1[C@H]2CCC[C@]1(c1cccc(O)c1)CCN2CCc1cccc([N+](=O)[O-])c1` [compound 18, 3-((1R,5S,9R)-2-(3-Nitrophenethyl)-9-vinyl-2-azabicyclo[3.3.1]nonan-5-yl)phenol], for which the results for the EC50 in data set [11], in data set [18] and in data set [19] were 2.05 nM, above 10000 nM and above 10000 nM, respectively. Further, the results for the Emax in data set [11] and in data set [19] (read-out: KOR Agonist %Emax ± SEM) were 85.8% and 0%, respectively. The compound also gave a kinetic solubility in “Kinetic solubility assay” above 39 µg/mL. The half-life at 1 μM in data set [2] is 10.6 min; in [3], 3.54 min; in data set [4], 1.98 min; in data set [5], above 120 min; in [6], above 120 min; in data set [7] it was above 120 min. For the same compound, the “PAMPA permeability Papp” value in data set [20] is listed as >1000 10E-6 cm/s. In data set [9], it took 52.5 ± 8.43 nM to reach half-maximal inhibition (IC50). Also, the “DOR Antagonist %Imax ± SEM” value in data set [9] was determined as 149.9 ± 13.2%.
